Experimental data from patent publication US20160120915A1, “METHODS FOR MANIPULATING IMMUNE RESPONSES BY ALTERING MICROBIOTA” (NEW YORK UNIVERSITY, priority 2013, published 2016).
Where a name gives a salt, the structure may show the parent alone.

Assays:
[1] = test system: small intestinal lamina propria T-helper cells; test: NOD: flow cytometry of Treg and Th17 cells in spleen and SI-LP; assay type: in vivo, NOD mice; conditions: for percent of SI-LP Th17 (CD4+RORγT+) cells / percent of SI-LP Treg (CD4+ FOXP3+) cells: 6-week old male NOD mice, vs controls
Method: After euthanasia of the mice by CO2 asphyxiation followed by cervical dislocation, the small intestines were dissected and immediately placed in cold calcium and magnesium-free DPBS, followed by removal of the mesenteric fat and Peyer's patches. The intestines were opened longitudinally and contents were removed by washing thoroughly with cold DPBS. The intestines were then cut into 2 cm pieces and treated with 10 ml 1 mM DTT/PBS, shaken at RT for 10 minutes to remove contaminating intraepithelial lymphocytes. Subsequently, the intestinal tissue was treated two times with 30 mM EDTA and 10 mM HEPES in PBS to remove epithelial cells. To isolate lamina propria lymphocytes, intestinal tissue was digested for 1.5 hours at 37° C. in digestion mix (0.5 mg/ml Collagenase/Dispase (Roche), 150 μg /ml DNase 1 (Sigma) in complete RPMI. Cells were passed through a 100 μm diameter nylon mesh filter (BD Bioscience). For further purification of leukocytes, intestinal cell suspensions were resuspended in 40% Percoll, under-layered with 80% Percoll (GE Healthcare Life Sciences) and centrifuged at 2,200 rpm for 25 minutes at room temperature. The leukocytes were collected at the interphase of the 40% 80% discontinuous Percoll gradient, then washed and re-suspended in DPBS for staining.
Cells were incubated with blue Live/DEAD fixable dye (Invitrogen) for 10 minutes at 4° C. to identify live cells. Intestinal leukocytes were phenotyped using the following antibodies: CD3-APC-Cy™7 (BD Biosciences), CD4− PE-Alexa Fluor 610 (Invitrogen), CD8− V500 (BD Biosciences), RORγt-PE (eBioscience), Foxp3-PE-Cy7 (eBioscience). Cells were first incubated with surface antibodies (each at 1:50 in FACS buffer) along with FC block (Anti-Mouse CD16/CD32, eBioscience) at 1:200 for 30 minutes at 4° C. Then the cells were fixed and permeabilized with Fix/Perm (eBioscience) and subsequently incubated with the nuclear antibodies in perm/wash buffer for 30 minutes at 4° C. (eBioscience).
All cells were acquired on a LSRII (BD Biosciences) and analyzed using FlowJo software (version 9.3.2; Tree Star Inc.).
Flow cytometry was performed on splenic and SI-LP cells from 6-week old male and female NOD mice. CD3 and CD4 surface stains and a live/dead stain were used to gate on live T-helper cells. Nuclear staining for FOXP3 and RORγT was performed to identify Treg and Th17 cells, respectively. By qPCR, SFB was below detectable limits in fecal specimens collected at 3 weeks and 6 weeks of age from all of the mice used in the above analysis. The range for SFB qPCR assay was from 10^2 to 10^6 copies of SFB. […] PAT decreased the percent of SI-LP Treg and Th17 cells in male, but not female NOD mice. C=controls, S=STAT, P=PAT. Statistical analysis was performed on each tissue separately, using the Kruskal-Wallis test followed by the Dunn's multiple comparison test, ** p≦0.01. […] This work provides evidence that PAT changes T-cell populations in the NOD mice that are developing T1D and insulitis earlier.

terminal ileum = test: NOD: ileal gene expression profiling by microarray; assay type: in vivo, NOD mice; conditions: for differentially regulated genes that were down: PAT vs Control
Method: Ileal gene expression profiling of 6-week control, STAT, and PAT animal groups, was performed using the Affymetrix Genechip system (Affymetrix, Santa Clara Calif.). Total RNA quality and quantity were determined using the Nanodrop ND-1000, agarose gel, and Agilent 2100 Bioanalyser. Total RNA (100 ng) was used to prepare cDNA following the Affymetrix 3′IVT Express Kit labeling protocol (Affymetrix). Standardized array processing procedures recommended by Affymetrix were performed, including hybridization, fluidics processing and scanning of the Affymetrix Mouse Genome 430 2.0 Array chips. The affy package in R was used to normalize the raw data (Affymetrix CEL files) by Robust Multichip Average (RMA) algorithm. Then the limma package was used to identify regulated genes between groups and generate lists of differentially expressed genes using linear models and empirical Bayes method with an FDR-adjusted p-value cut-off of p<0.05 (Smyth, 2004, Statistical Applications in Genetics and Molecular Biology 3, No. 1, Article 3).
RNA was extracted from the terminal ileum of the 6-week old NOD mice. Raw probe intensities were normalized by the Robust Multichip Average (RMA) algorithm using affy package in R and then the limma package was used to identify regulated genes using linear models and empirical Bayes method with an FDR-adjusted p-value cut off of p<0.05 (Smyth 2004, Statistical Applications in Genetics and Molecular Biology 3, No. 1, Article 3.).

[2] = terminal ileum, NOD male mice, microarray
[3] = terminal ileum, NOD male mice, microarray, probe with greatest fold change

In the case of `CC1(C)S[C@@H]2[C@H](NC(=O)COc3ccccc3)C(=O)N2[C@H]1C(=O)[O-].[K+]` [STAT, penicillin VK], the “percent of SI-LP Th17 (CD4+RORγT+) cells” value [1] is reported as “intermediate” and the “percent of SI-LP Treg (CD4+ FOXP3+) cells” value [1] is reported as “intermediate”.

`CC[C@H]1OC(=O)C[C@@H](O)[C@H](C)[C@@H](O[C@@H]2O[C@H](C)[C@@H](O[C@H]3C[C@@](C)(O)[C@@H](O)[C@H](C)O3)[C@H](N(C)C)[C@H]2O)[C@@H](CC=O)C[C@@H](C)C(=O)/C=C/C(C)=C/[C@@H]1CO[C@@H]1O[C@H](C)[C@@H](O)[C@@H](OC)[C@H]1OC` [Tylosin, Tylosin tartrate] was tested, and the “decrease of percent of SI-LP Treg and Th17 cells” value ([1]; 6-week old female NOD mice) was “not”, the “percent of SI-LP Th17 (CD4+RORγT+) cells” value [1] was “decreased” and the “percent of SI-LP Treg (CD4+ FOXP3+) cells” value [1] was “decreased”. The “differentially regulated genes that were down” value (terminal ileum; NOD females) was 42.1%, the “differentially regulated genes that were down” value (terminal ileum; NOD males) was 69.3% and the “log2 fold change (PAT/control), Arl5b” value (terminal ileum; [2]) was 2.42. The “log2 fold change (PAT/control), Bhmt” value (terminal ileum; [2]) was −1.52, the “log2 fold change (PAT/control), Ccl20” value (terminal ileum; [2]) was −0.86 and the “log2 fold change (PAT/control), Clec2d” value (terminal ileum; [2]) was −0.65. For the same compound, the “log2 fold change (PAT/control), Dio1” value (terminal ileum; [2]) was −1.34, the “log2 fold change (PAT/control), Dusp14” value (terminal ileum; [2]) was 2.22 and the “log2 fold change (PAT/control), Edn2” value (terminal ileum; [2]) was −1.67. For the same compound, the “log2 fold change (PAT/control), Ereg” value (terminal ileum; [2]) was 1.73, the “log2 fold change (PAT/control), G6pc” value (terminal ileum; [2]) was −2.85 and the “log2 fold change (PAT/control), Gjb3” value (terminal ileum; [2]) was 0.77. For the same compound, the “log2 fold change (PAT/control), Gzma” value (terminal ileum; [2]) was −1.48, the “log2 fold change (PAT/control), Il1rn” value (terminal ileum; [2]) was 1.70 and the “log2 fold change (PAT/control), Il17rd” value (terminal ileum; [2]) was −0.58. The “log2 fold change (PAT/control), Irf1” value (terminal ileum; [2]) was −1.14, the “log2 fold change (PAT/control), Maff” value (terminal ileum; [2]) was 2.22 and the “log2 fold change (PAT/control), Phlda1” value (terminal ileum; [2]) was 1.96. For the same compound, the “log2 fold change (PAT/control), S100a14” value (terminal ileum; [2]) was 1.00, the “log2 fold change (PAT/control), Saa1” value (terminal ileum; [2]) was −4.00 and the “log2 fold change (PAT/control), Saa2” value (terminal ileum; [2]) was −1.44. The “log2 fold change (PAT/control), Tifa” value (terminal ileum; [2]) was −1.32, the “log2 fold change (PAT/control), Tppp” value (terminal ileum; [2]) was −1.35 and the “log2 fold change (PAT/control), Acsl3” value (terminal ileum; [3]) was 1.59. For the same compound, the “log2 fold change (PAT/control), Ccl28” value (terminal ileum; [3]) was −0.64, the “log2 fold change (PAT/control), Cd38” value (terminal ileum; [3]) was −1.02 and the “log2 fold change (PAT/control), Chka” value (terminal ileum; [3]) was 1.97. The “log2 fold change (PAT/control), Flrt3” value (terminal ileum; [3]) was 2.56, the “log2 fold change (PAT/control), Il1rl1” value (terminal ileum; [3]) was 1.64 and the “log2 fold change (PAT/control), Klf4” value (terminal ileum; [3]) was 0.86. The “log2 fold change (PAT/control), Slc2a1” value (terminal ileum; [3]) was 1.26, the “log2 fold change (PAT/control), Socs2” value (terminal ileum; [3]) was −0.77 and the “log2 fold change (PAT/control), Tnfrsf12a” value (terminal ileum; [3]) was 1.72. The “log2 fold change (PAT/control), Tnfsf10” value (terminal ileum; [3]) was −1.46, the “log2 fold change (PAT/control), Zfand2a” value (terminal ileum; [3]) was 2.11 and the “log2 fold change (PAT/control), Rab30” value (terminal ileum; terminal ileum, PAT-treated NOD male mice, 6-week, microarray) was 4.27. The “log2 fold change (PAT/control), Areg” value (terminal ileum; terminal ileum, PAT-treated NOD male mice, microarray) was 3.94.
